Source: ChEMBL document CHEMBL1153243, “Structure and property based design of factor Xa inhibitors: pyrrolidin-2-ones with monoaryl P4 motifs” (Bioorg Med Chem Lett, 2010)

How the values were obtained:
Assay type in all cases: ADME, organism-based
[1] = Half life in Sprague-Dawley rat; conditions: in vivo
[2] = Volume of distribution at steady state in Sprague-Dawley rat; conditions: in vivo, read-out: Vdss
[3] = Plasma clearance in Sprague-Dawley rat
[4] = Oral bioavailability in Sprague-Dawley rat; conditions: in vivo

C[C@H](c1ccc(N2CC[C@H](NS(=O)(=O)/C=C/c3ccc(Cl)s3)C2=O)c(F)c1)N(C)C
half-life [1]: 1.3 h | Vd [2]: 0.66 L/kg | clearance [3]: 7.5 mL/min/kg | bioavailability [4]: 54%

CN[C@H](C)c1ccc(N2CC[C@H](NS(=O)(=O)c3ccc4cc(Cl)ccc4c3)C2=O)c(F)c1
half-life [1]: 18 h | Vd [2]: 2.4 L/kg | clearance [3]: 1.6 mL/min/kg | bioavailability [4]: > 10%

C[C@H](c1ccc(N2CC[C@H](NS(=O)(=O)c3ccc4cc(Cl)ccc4c3)C2=O)c(F)c1)N(C)C
half-life [1]: 2.6 h | Vd [2]: 1.3 L/kg | clearance [3]: 8 mL/min/kg | bioavailability [4]: 43%

C[C@@H](c1ccc(N2CC[C@H](NS(=O)(=O)c3ccc4cc(Cl)ccc4c3)C2=O)c(F)c1)N(C)C
half-life [1]: 2.1 h | Vd [2]: 1.8 L/kg | clearance [3]: 13 mL/min/kg | bioavailability [4]: 81%

C[C@@H](c1ccc(N2CC[C@H](NS(=O)(=O)/C=C/c3ccc(Cl)s3)C2=O)c(F)c1)N(C)C
half-life [1]: 1.6 h | Vd [2]: 0.53 L/kg | clearance [3]: 4.3 mL/min/kg | bioavailability [4]: 23%

CC(c1ccc(N2CC[C@H](NS(=O)(=O)c3cc4ccc(Cl)cc4s3)C2=O)c(F)c1)N(C)C (stereo partly drawn)
half-life [1]: 3.1 h | Vd [2]: 0.52 L/kg | clearance [3]: 2.1 mL/min/kg | bioavailability [4]: 10%

CN[C@@H](C)c1ccc(N2CC[C@H](NS(=O)(=O)c3ccc4cc(Cl)ccc4c3)C2=O)c(F)c1
half-life [1]: 15 h | Vd [2]: 3.3 L/kg | clearance [3]: 3.1 mL/min/kg | bioavailability [4]: > 15%
